System: human breast cancer cell line (MCF-7)
Test: MTT assay, growth inhibition of MCF-7 cells
Type: cell-based
Settings: MCF7, MTT, 48 hours incubation, MCF-7, read-out: MCF-7 (IC50)
Method: (§1) To evaluate the anticancer activity of the oxindole derivatives produced and analyzed in examples 1 to 8, MTT assay was performed to confirm the growth inhibitory effect on cancer cells. More specifically, human prostate adenocarcinoma cell line (LNCaP), human breast cancer cell line (MCF-7), human ovarian cancer cell line (SKOV3), human lung cancer cell line […] and human renal adenocarcinoma cell line (786-O) were cultured in DMEM medium supplemented with 1% penicillin/streptomycin and 10% fetal bovine serum (All from Life Technologies, Grand Island, N.Y.). Cells were seeded in 96-well plates (3×10^3 cells/well) containing 100 μL of growth medium for 24 hours. After the medium was removed, 100 μL of each of the different analogues (dissolved in DMSO to 0.025% or less) was added to each well and cultured at 37° C. for 48 hours. After 48 hours of incubation, 100 μL of MTT reagent was added to each well. After incubation at 37° C. for 4 hours, the supernatant was aspirated, and the formazan crystals were dissolved in 100 μL of DMSO at 37° C. for 10 minutes with gentle stirring. Absorbance per well was measured at 540 nm using a VERSA max microplate reader (Molecular Devices Corp.). IC50 values were defined as compound concentrations that inhibited cell proliferation by 50% compared to cells treated with the highest amount of DMSO (0.025%) and were considered to be 100% viability.

Row | Structure (SMILES) | IC50
1 | CNC(=O)CC1C(=O)N(Nc2ccccc2)c2ccccc21 (centres unmarked) [3m, N-methyl-2-(2-oxo-1-(phenylamino)indolin-3-yl)acetamide] | > 50 µM
2 | CNC(=O)CC1C(=O)N(Nc2ccc(C)cc2)c2ccc(C)cc21 (centres unmarked) [3n, N-Methyl-2-(5-methyl-2-oxo-1-(p-tolylamino)indolin-3-yl)acetamide] | > 50 µM
3 | CCc1cccc(NN2C(=O)C(CC(=O)NC)c3ccc(CC)cc32)c1 (centres unmarked) [3o, 2-(6-Ethyl-1-((3-ethylphenyl)amino)-2-oxoindolin-3-yl)-N-methylacetamide] | > 50 µM
4 | CCNC(=O)CC1C(=O)N(Nc2ccccc2CC)c2c(CC)cccc21 (centres unmarked) [4b, N-Ethyl-2-(7-ethyl-1-((2-ethylphenyl)amino)-2-oxoindolin-3-yl)acetamide] | > 50 µM
5 | CCc1ccccc1NN1C(=O)C(CC(=O)NC2CCCCC2)c2cccc(CC)c21 (centres unmarked) [4d, N-Cyclohexyl-2-(7-ethyl-1-((2-ethylphenyl)amino)-2-oxoindolin-3-yl)acetamide] | 40.4 µM
6 | CCc1ccccc1NN1C(=O)C(CC(=O)NC(C)(C)C)c2cccc(CC)c21 (centres unmarked) [4e, N-(tert-butyl)-2-(7-ethyl-1-((2-ethylphenyl)amino)-2-oxoindolin-3-yl)acetamide] | > 50 µM
7 | CCc1ccccc1NN1C(=O)C(CC(N)=O)c2cccc(CC)c21 (centres unmarked) [4f, 2-(7-Ethyl-1-((2-ethylphenyl)amino)-2-oxoindolin-3-yl)acetamide] | > 50 µM
8 | CCc1ccccc1NN1C(=O)C(CC(=O)NC(=O)OC)c2cccc(CC)c21 (centres unmarked) [4i, Methyl (2-(7-ethyl-1-((2-ethylphenyl)amino)-2-oxoindolin-3-yl)acetyl)carbamate] | > 50 µM
9 | CCc1ccccc1NN1C(=O)C(CC(=O)OC)c2cccc(CC)c21 (centres unmarked) [6a, Methyl 2-(7-ethyl-1-((2-ethylphenyl)amino)-2-oxoindolin-3-yl)acetate] | > 50 µM
10 | CCc1ccccc1NN1C(=O)C(CC(=O)OC(C)C)c2cccc(CC)c21 (centres unmarked) [6c, Isopropyl 2-(7-ethyl-1-((2-ethylphenyl)amino)-2-oxoindolin-3-yl)acetate] | 45.5 µM
11 | CCc1cccc2c1NC(=O)C2CC(=O)OC(C)C (centres unmarked) [8b, Isopropyl 2-(7-ethyl-2-oxoindolin-3-yl)acetate] | > 50 µM

System: human lung cancer cell line (A459)
Test: MTT assay, growth inhibition of A549 cells
Type: cell-based
Settings: Homo sapiens; MTT, 48 hours incubation, A549; read-out: A549 (IC50)
Method: as §1

Row | Structure (SMILES) | IC50
12 | CNC(=O)CC1C(=O)N(Nc2ccccc2)c2ccccc21 (centres unmarked) [3m, N-methyl-2-(2-oxo-1-(phenylamino)indolin-3-yl)acetamide] | > 50 µM
13 | CNC(=O)CC1C(=O)N(Nc2ccc(C)cc2)c2ccc(C)cc21 (centres unmarked) [3n, N-Methyl-2-(5-methyl-2-oxo-1-(p-tolylamino)indolin-3-yl)acetamide] | > 50 µM
14 | CCc1cccc(NN2C(=O)C(CC(=O)NC)c3ccc(CC)cc32)c1 (centres unmarked) [3o, 2-(6-Ethyl-1-((3-ethylphenyl)amino)-2-oxoindolin-3-yl)-N-methylacetamide] | > 50 µM
15 | CCNC(=O)CC1C(=O)N(Nc2ccccc2CC)c2c(CC)cccc21 (centres unmarked) [4b, N-Ethyl-2-(7-ethyl-1-((2-ethylphenyl)amino)-2-oxoindolin-3-yl)acetamide] | > 50 µM
16 | CCc1ccccc1NN1C(=O)C(CC(=O)NC2CCCCC2)c2cccc(CC)c21 (centres unmarked) [4d, N-Cyclohexyl-2-(7-ethyl-1-((2-ethylphenyl)amino)-2-oxoindolin-3-yl)acetamide] | > 38.6 µM
17 | CCc1ccccc1NN1C(=O)C(CC(=O)NC(C)(C)C)c2cccc(CC)c21 (centres unmarked) [4e, N-(tert-butyl)-2-(7-ethyl-1-((2-ethylphenyl)amino)-2-oxoindolin-3-yl)acetamide] | > 50 µM
18 | CCc1ccccc1NN1C(=O)C(CC(N)=O)c2cccc(CC)c21 (centres unmarked) [4f, 2-(7-Ethyl-1-((2-ethylphenyl)amino)-2-oxoindolin-3-yl)acetamide] | > 50 µM
19 | CCc1ccccc1NN1C(=O)C(CC(=O)NC(=O)OC)c2cccc(CC)c21 (centres unmarked) [4i, Methyl (2-(7-ethyl-1-((2-ethylphenyl)amino)-2-oxoindolin-3-yl)acetyl)carbamate] | > 50 µM
20 | CCc1ccccc1NN1C(=O)C(CC(=O)OC)c2cccc(CC)c21 (centres unmarked) [6a, Methyl 2-(7-ethyl-1-((2-ethylphenyl)amino)-2-oxoindolin-3-yl)acetate] | > 50 µM
21 | CCc1ccccc1NN1C(=O)C(CC(=O)OC(C)C)c2cccc(CC)c21 (centres unmarked) [6c, Isopropyl 2-(7-ethyl-1-((2-ethylphenyl)amino)-2-oxoindolin-3-yl)acetate] | > 50 µM
22 | CCc1cccc2c1NC(=O)C2CC(=O)OC(C)C (centres unmarked) [8b, Isopropyl 2-(7-ethyl-2-oxoindolin-3-yl)acetate] | > 50 µM

Same assay, conditions: summary of Table 3, A549

Row | Structure (SMILES) | inhibitory activity in A549 (in words)
23 | CCNC(=O)CC1C(=O)N(Nc2ccccc2CC)c2c(CC)cccc21 (centres unmarked) [4b, N-Ethyl-2-(7-ethyl-1-((2-ethylphenyl)amino)-2-oxoindolin-3-yl)acetamide] | excellent activity

System: human renal adenocarcinoma cell line (786-O)
Test: MTT assay, growth inhibition of 786-O cells
Type: cell-based
Settings: Homo sapiens, 786-0; MTT, 48 hours incubation, 786-O; read-out: 786-O (IC50)
Method: as §1

Row | Structure (SMILES) | IC50
24 | CNC(=O)CC1C(=O)N(Nc2ccccc2)c2ccccc21 (centres unmarked) [3m, N-methyl-2-(2-oxo-1-(phenylamino)indolin-3-yl)acetamide] | > 50 µM
25 | CNC(=O)CC1C(=O)N(Nc2ccc(C)cc2)c2ccc(C)cc21 (centres unmarked) [3n, N-Methyl-2-(5-methyl-2-oxo-1-(p-tolylamino)indolin-3-yl)acetamide] | > 50 µM
26 | CCc1cccc(NN2C(=O)C(CC(=O)NC)c3ccc(CC)cc32)c1 (centres unmarked) [3o, 2-(6-Ethyl-1-((3-ethylphenyl)amino)-2-oxoindolin-3-yl)-N-methylacetamide] | > 50 µM
27 | CCNC(=O)CC1C(=O)N(Nc2ccccc2CC)c2c(CC)cccc21 (centres unmarked) [4b, N-Ethyl-2-(7-ethyl-1-((2-ethylphenyl)amino)-2-oxoindolin-3-yl)acetamide] | > 50 µM
28 | CCc1ccccc1NN1C(=O)C(CC(=O)NC2CCCCC2)c2cccc(CC)c21 (centres unmarked) [4d, N-Cyclohexyl-2-(7-ethyl-1-((2-ethylphenyl)amino)-2-oxoindolin-3-yl)acetamide] | 33.1 µM
29 | CCc1ccccc1NN1C(=O)C(CC(=O)NC(C)(C)C)c2cccc(CC)c21 (centres unmarked) [4e, N-(tert-butyl)-2-(7-ethyl-1-((2-ethylphenyl)amino)-2-oxoindolin-3-yl)acetamide] | 36.6 µM
30 | CCc1ccccc1NN1C(=O)C(CC(N)=O)c2cccc(CC)c21 (centres unmarked) [4f, 2-(7-Ethyl-1-((2-ethylphenyl)amino)-2-oxoindolin-3-yl)acetamide] | > 50 µM
31 | CCc1ccccc1NN1C(=O)C(CC(=O)NC(=O)OC)c2cccc(CC)c21 (centres unmarked) [4i, Methyl (2-(7-ethyl-1-((2-ethylphenyl)amino)-2-oxoindolin-3-yl)acetyl)carbamate] | 32.6 µM
32 | CCc1ccccc1NN1C(=O)C(CC(=O)OC)c2cccc(CC)c21 (centres unmarked) [6a, Methyl 2-(7-ethyl-1-((2-ethylphenyl)amino)-2-oxoindolin-3-yl)acetate] | > 50 µM
33 | CCc1ccccc1NN1C(=O)C(CC(=O)OC(C)C)c2cccc(CC)c21 (centres unmarked) [6c, Isopropyl 2-(7-ethyl-1-((2-ethylphenyl)amino)-2-oxoindolin-3-yl)acetate] | 30.5 µM
34 | CCc1cccc2c1NC(=O)C2CC(=O)OC(C)C (centres unmarked) [8b, Isopropyl 2-(7-ethyl-2-oxoindolin-3-yl)acetate] | > 50 µM

Same assay, conditions: summary of Table 3, 786-O

Row | Structure (SMILES) | inhibitory activity in 786-O (in words)
35 | CCNC(=O)CC1C(=O)N(Nc2ccccc2CC)c2c(CC)cccc21 (centres unmarked) [4b, N-Ethyl-2-(7-ethyl-1-((2-ethylphenyl)amino)-2-oxoindolin-3-yl)acetamide] | excellent activity

System: human ovarian cancer cell line (SKOV3)
Test: MTT assay, growth inhibition of SKOV3 cells
Type: cell-based
Settings: SK-OV-3, MTT, 48 hours incubation, SKOV3, read-out: SKOV3 (IC50)
Method: as §1

Row | Structure (SMILES) | IC50
36 | CNC(=O)CC1C(=O)N(Nc2ccccc2)c2ccccc21 (centres unmarked) [3m, N-methyl-2-(2-oxo-1-(phenylamino)indolin-3-yl)acetamide] | > 50 µM
37 | CNC(=O)CC1C(=O)N(Nc2ccc(C)cc2)c2ccc(C)cc21 (centres unmarked) [3n, N-Methyl-2-(5-methyl-2-oxo-1-(p-tolylamino)indolin-3-yl)acetamide] | > 50 µM
38 | CCc1cccc(NN2C(=O)C(CC(=O)NC)c3ccc(CC)cc32)c1 (centres unmarked) [3o, 2-(6-Ethyl-1-((3-ethylphenyl)amino)-2-oxoindolin-3-yl)-N-methylacetamide] | > 50 µM
39 | CCNC(=O)CC1C(=O)N(Nc2ccccc2CC)c2c(CC)cccc21 (centres unmarked) [4b, N-Ethyl-2-(7-ethyl-1-((2-ethylphenyl)amino)-2-oxoindolin-3-yl)acetamide] | > 50 µM
40 | CCc1ccccc1NN1C(=O)C(CC(=O)NC2CCCCC2)c2cccc(CC)c21 (centres unmarked) [4d, N-Cyclohexyl-2-(7-ethyl-1-((2-ethylphenyl)amino)-2-oxoindolin-3-yl)acetamide] | > 50 µM
41 | CCc1ccccc1NN1C(=O)C(CC(=O)NC(C)(C)C)c2cccc(CC)c21 (centres unmarked) [4e, N-(tert-butyl)-2-(7-ethyl-1-((2-ethylphenyl)amino)-2-oxoindolin-3-yl)acetamide] | > 50 µM
42 | CCc1ccccc1NN1C(=O)C(CC(N)=O)c2cccc(CC)c21 (centres unmarked) [4f, 2-(7-Ethyl-1-((2-ethylphenyl)amino)-2-oxoindolin-3-yl)acetamide] | > 50 µM
43 | CCc1ccccc1NN1C(=O)C(CC(=O)NC(=O)OC)c2cccc(CC)c21 (centres unmarked) [4i, Methyl (2-(7-ethyl-1-((2-ethylphenyl)amino)-2-oxoindolin-3-yl)acetyl)carbamate] | > 50 µM
44 | CCc1ccccc1NN1C(=O)C(CC(=O)OC)c2cccc(CC)c21 (centres unmarked) [6a, Methyl 2-(7-ethyl-1-((2-ethylphenyl)amino)-2-oxoindolin-3-yl)acetate] | > 50 µM
45 | CCc1ccccc1NN1C(=O)C(CC(=O)OC(C)C)c2cccc(CC)c21 (centres unmarked) [6c, Isopropyl 2-(7-ethyl-1-((2-ethylphenyl)amino)-2-oxoindolin-3-yl)acetate] | > 50 µM
46 | CCc1cccc2c1NC(=O)C2CC(=O)OC(C)C (centres unmarked) [8b, Isopropyl 2-(7-ethyl-2-oxoindolin-3-yl)acetate] | > 50 µM

System: human prostate adenocarcinoma cell line (LNCaP)
Test: MTT assay, growth inhibition of LNCaP cells
Type: cell-based
Settings: Homo sapiens; MTT, 48 hours incubation, LNCaP; read-out: LNCaP (IC50)
Method: as §1

Row | Structure (SMILES) | IC50
47 | CNC(=O)CC1C(=O)N(Nc2ccccc2)c2ccccc21 (centres unmarked) [3m, N-methyl-2-(2-oxo-1-(phenylamino)indolin-3-yl)acetamide] | > 50 µM
48 | CNC(=O)CC1C(=O)N(Nc2ccc(C)cc2)c2ccc(C)cc21 (centres unmarked) [3n, N-Methyl-2-(5-methyl-2-oxo-1-(p-tolylamino)indolin-3-yl)acetamide] | > 50 µM
49 | CCc1cccc(NN2C(=O)C(CC(=O)NC)c3ccc(CC)cc32)c1 (centres unmarked) [3o, 2-(6-Ethyl-1-((3-ethylphenyl)amino)-2-oxoindolin-3-yl)-N-methylacetamide] | > 50 µM
50 | CCNC(=O)CC1C(=O)N(Nc2ccccc2CC)c2c(CC)cccc21 (centres unmarked) [4b, N-Ethyl-2-(7-ethyl-1-((2-ethylphenyl)amino)-2-oxoindolin-3-yl)acetamide] | 32.2 µM
51 | CCc1ccccc1NN1C(=O)C(CC(=O)NC2CCCCC2)c2cccc(CC)c21 (centres unmarked) [4d, N-Cyclohexyl-2-(7-ethyl-1-((2-ethylphenyl)amino)-2-oxoindolin-3-yl)acetamide] | 33 µM
52 | CCc1ccccc1NN1C(=O)C(CC(=O)NC(C)(C)C)c2cccc(CC)c21 (centres unmarked) [4e, N-(tert-butyl)-2-(7-ethyl-1-((2-ethylphenyl)amino)-2-oxoindolin-3-yl)acetamide] | 15.3 µM
53 | CCc1ccccc1NN1C(=O)C(CC(N)=O)c2cccc(CC)c21 (centres unmarked) [4f, 2-(7-Ethyl-1-((2-ethylphenyl)amino)-2-oxoindolin-3-yl)acetamide] | > 50 µM
54 | CCc1ccccc1NN1C(=O)C(CC(=O)NC(=O)OC)c2cccc(CC)c21 (centres unmarked) [4i, Methyl (2-(7-ethyl-1-((2-ethylphenyl)amino)-2-oxoindolin-3-yl)acetyl)carbamate] | 33.5 µM
55 | CCc1ccccc1NN1C(=O)C(CC(=O)OC)c2cccc(CC)c21 (centres unmarked) [6a, Methyl 2-(7-ethyl-1-((2-ethylphenyl)amino)-2-oxoindolin-3-yl)acetate] | > 50 µM
56 | CCc1ccccc1NN1C(=O)C(CC(=O)OC(C)C)c2cccc(CC)c21 (centres unmarked) [6c, Isopropyl 2-(7-ethyl-1-((2-ethylphenyl)amino)-2-oxoindolin-3-yl)acetate] | 14.5 µM
57 | CCc1cccc2c1NC(=O)C2CC(=O)OC(C)C (centres unmarked) [8b, Isopropyl 2-(7-ethyl-2-oxoindolin-3-yl)acetate] | > 50 µM

Same assay, conditions: summary of Table 3, LNCaP

Row | Structure (SMILES) | inhibitory activity in LNCaP (in words)
58 | CCNC(=O)CC1C(=O)N(Nc2ccccc2CC)c2c(CC)cccc21 (centres unmarked) [4b, N-Ethyl-2-(7-ethyl-1-((2-ethylphenyl)amino)-2-oxoindolin-3-yl)acetamide] | excellent activity
59 | CCc1ccccc1NN1C(=O)C(CC(=O)OC(C)C)c2cccc(CC)c21 (centres unmarked) [6c, Isopropyl 2-(7-ethyl-1-((2-ethylphenyl)amino)-2-oxoindolin-3-yl)acetate] | excellent activity
